Laboratory results reported in the supplement of paper PMC5770543.
± gives the standard deviation.

Assays:
[1] = system: Plasmodium falciparum 3D7; assay: % inhibition of schizont-to-ring transition vs DMSO; higher = more inhibition
Summary of the method: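 Schizont-to-ring transition inhibition is the formation of new rings relative to vehicle controls. Tightly synchronised P. falciparum schizonts at about 40–42 hours post-invasion (1% parasitemia, 2.5% hematocrit, AlbuMAX-supplemented RPMI) were treated with compound at 1, 3 or 10 µM, alongside vehicle and positive controls. After glutaraldehyde fixation, Triton permeabilisation and Hoechst 33342 staining, at least 100,000 events were counted by flow cytometry, and values are the mean of three experiments.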

[2] = system: Toxoplasma gondii RH tachyzoites; assay: % growth inhibition vs DMSO (48 h luciferase); higher = more inhibition; settings: 10 µM
[3] = system: Plasmodium falciparum 3D7; assay: EC50 growth inhibition (60 h, SYBR Green); settings: stage: ring-stage start
[4] = system: Toxoplasma gondii RH tachyzoites; assay: plaque count per well; higher = less inhibition; extreme values may be limits of the assay; settings: 10 µM; 8-10 days
Method: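 T. gondii RH tachyzoites expressing firefly luciferase were grown in HFF monolayers for 48 h with compound. % growth inhibition at 10 µM and EC50 (2-fold dilutions from 10 µM) were read by luminescence relative to 1% DMSO; EC50 listed as 10 (not determined, <80% inhibition) is left out. Plaque assays: 50 tachyzoites per well with 10 µM compound for 8-10 days, giving plaque count and area by crystal violet/ImageJ. Egress: median time to egress after 1 µM A23187 ionophore following 24 h of 10 µM compound (DMSO ~1.8 min; >10 = no egress within 10 min).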
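Wherever % growth inhibition vs DMSO (48 h luciferase) is given: tested in triplicate wells of 96-well plates on confluent HFF monolayers, with 1% DMSO wells as negative control in four replicates.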

SMILES	% inhibition of schizont-to-ring transition ([1]; 1 µM) [%]	% inhibition of schizont-to-ring transition ([1]; 3 µM) [%]	% inhibition of schizont-to-ring transition ([1]; 10 µM) [%]	% growth inhibition [2] [%]	EC50 growth inhibition [3] [nM]	plaque count per well [4]
OCCNc1nc(Nc2ccc(Cl)c(Cl)c2)nc2ccccc12	51	66.3	68.9	< 0	180	0
Cc1cccc(Nc2nc(N)c3ccccc3n2)c1	3.41	36.1	54.2	< 0	669	0
CN(C)c1ccc(N2C(N)=NC(N)=NC2(C)C)cc1	7.46	13.2	46.8	< 0	5680	23
CN1c2ccccc2N(C)C1c1ccc2c(c1)OCO2	< 0	< 0	18.3	< 0	9760	23
COc1ccc(-n2ccnc2SCC(=O)Nc2cc(C)ccc2C)c(OC)c1	41.6	49.9	56.2	< 0	226	31
CC1CCN(Cc2ccc(NC(=O)c3cc4ccc5cccnc5c4[nH]3)cc2)CC1	42.3	50	55.4	< 0	241	18
COc1ccc2nc(C)cc(Nc3cccc(O)c3)c2c1	42.3	59.4	64	19.7 ± 6.3	845	0
C[n+]1c2ccccc2nc2ccc(NCCO)cc21	33.2	48.3	65.4	< 0	96.4	0
CCOC(=O)C1(Cc2ccccc2)CCN(Cc2cccc(OC)c2O)CC1	25.8	34	55.9	1.84 ± 3.2	1330	0
O=C(O)C1Cc2c([nH]c3ccccc23)C(c2ccc(Cl)cc2Cl)N1 (stereo not drawn)	8.54	18.6	26.4	< 0	1300	32
COc1nc(Nc2ccc(C(C)C)cc2)nc(OC)n1	20.3	32.6	54.9	< 0	2540	30
Cc1ccc(-c2cc(C(=O)Nc3ccc(S(=O)(=O)N4CCCCC4)cc3)[nH]n2)c(O)c1	28.1	58.9	67.5	< 0	9180	18
Cc1ccc(-c2cc3nc4c(c(O)n3n2)CCCC4)cc1	17.7	36.1	49.3	< 0	4270	0
CCOC(=O)C1CCN(C(=O)CN2C(=O)c3ccccc3C2c2c[nH]c3ccccc23)CC1 (stereo not drawn)	15.7	32.3	65.4	< 0	971	31
CCn1c(SCC(=O)Nc2cc(C(F)(F)F)ccc2Cl)nc2ccccc2c1=O	22.9	30.1	43.7	< 0	6480	26
CCCCc1c(C)nc2c(OC)cccc2c1O	41.9	45.3	49.4	9.6 ± 15	2640	0
CCOc1cc(CNC(C)C(O)c2ccccc2)cc(Cl)c1OCC (stereo not drawn)	2	17.2	44.2	15 ± 24	1060	0
COc1cccc(C(=O)NC(c2ccc(C)cc2)c2cc(Cl)c3cccnc3c2O)c1 (stereo not drawn)	30.4	42.1	49.9	< 0	7640	0
O=C(NCC(c1ccsc1)N1CCCCCC1)c1ccc(C(F)(F)F)cc1 (stereo not drawn)	43.8	41.5	47.4	11 ± 19	3350	0
Cc1cc(C)c2nc(N3CCC(C(=O)NCCCN4CCC(N5CCCCC5)CC4)CC3)sc2c1	18.8	46.7	59.8	< 0	1080	16
c1ccc(-c2ccc(-c3nc4ccccc4[nH]3)cc2)cc1	8.54	24.5	41	12.3 ± 15	928	0

SMILES	% inhibition of schizont-to-ring transition ([1]; 1 µM) [%]	% inhibition of schizont-to-ring transition ([1]; 3 µM) [%]	% inhibition of schizont-to-ring transition ([1]; 10 µM) [%]	% growth inhibition [2] [%]	EC50 growth inhibition [3] [nM]	plaque count per well [4]
Cc1ccc(CN2CCC(C(=O)Nc3ccc(-c4cc5ccccc5[nH]4)cc3)CC2)o1	21.9	44.3	68.2	< 0	2170	38
Cc1ccc(F)cc1NC(=O)c1cc(Cl)ccc1Nc1ccccc1	54.4	70.7	81.9	< 0	1790	26
COc1ccccc1CNC(=O)C1c2ccccc2C(=O)N(CC(C)C)C1c1cccs1 (stereo not drawn)	34.5	45	68.1	< 0	926	24
CCCc1cc(O)c2c3c(c(=O)oc2c1)CN(C)CC3	25.2	60.2	68	< 0	364	33
COc1ccc(CN2CCN(Cc3ccccc3)CC2)c(O)c1	13.1	19.6	40.3	11.2 ± 5.4	2170	29
CCc1c(C)c(=N)c2ccccc2n1C	5.96	11.3	33.6	< 0	3380	25
O=C(Nc1ccc(CN2CCOCC2)cc1)c1ccc(-c2ccc(Br)cc2)o1	40.3	45.9	59.2	8.26 ± 14	1420	30
CC1=C(CC(=O)c2cccc([N+](=O)[O-])c2)C(=O)c2ccccc2C1=O	32.3	55.7	59.9	< 0	9850	0
COc1ccc(CNC2CCN(c3ccc(NC(=O)c4cccc(Cl)c4)cc3)CC2)cc1OC	< 0	28.3	38.6	3.03 ± 5.2	492	0
COc1ccc(Br)cc1C1Nc2ccc3ccccc3c2C2=C1C(=O)CC(c1ccccc1)C2 (stereo not drawn)	< 0	4.06	29.3	12.1 ± 11	387	0
CCCCc1c(CCC)c(=N)c2ccccc2n1C	7.81	11.2	39.6	< 0	3930	23
Cc1c(C)n(Cc2ccc(F)cc2)c2ccc(C(=O)NCc3ccco3)cc12	36.3	40.3	53.4	< 0	1770	21
Cc1ccc(Nc2nc(NCCO)c3ccccc3n2)cc1C	54.1	66.8	69.1	< 0	194	0
CCn1c2c(c(=N)c3c1CCC3)CCCC2	43.8	47.9	56.4	< 0	2640	34
Cc1cc(C=C2SC(=Nc3ccccc3)N(C3CCCC3)C2=O)c(C)n1-c1ccc(Cl)cc1	17.8	26.2	37.9	< 0	5270	23
CCc1ccc(CNCC(O)c2ccccc2)cc1 (stereo not drawn)	12.2	14.9	45.9	< 0	4010	21
O=C(CSc1ccc2nnc(-c3cccc(F)c3)n2n1)Nc1ccc2c(c1)OCO2	32	49.9	72.7	15.9 ± 9.8	6570	25
CCOc1cc2c(cc1OCC)C(c1cc(C)c(O)c(C)c1)NCC2 (stereo not drawn)	6.53	17.1	43.5	14.9 ± 14	792	31
OC(CNC1CCCC1)Cn1c2ccccc2c2ccccc21 (stereo not drawn)	22.3	40.1	63.4	15.9 ± 6.6	723	0
CN1C=C(c2ccc3ccccc3n2)C(c2c[nH]c3ccccc23)c2ccccc21 (stereo not drawn)	26.7	37.7	70.6	< 0	638	0
Cn1c(=O)c2cc(C(=O)NCCCN3CCCCCC3)sc2c2ccccc21	42.6	49.5	53.2	5.71 ± 9.9	833	25

SMILES	% inhibition of schizont-to-ring transition ([1]; 1 µM) [%]	% inhibition of schizont-to-ring transition ([1]; 3 µM) [%]	% inhibition of schizont-to-ring transition ([1]; 10 µM) [%]	% growth inhibition [2] [%]	EC50 growth inhibition [3] [nM]	plaque count per well [4]
Cc1cccc(N2C(=O)C3C(C2=O)C2(c4ccccc4)C(=O)C3(c3ccccc3)C(c3ccc4c(c3)OCO4)=C2c2ccc3c(c2)OCO3)c1 (stereo not drawn)	< 0	< 0	17.3	< 0	1020	20
COc1ccc(-c2cc3c(nn2)-c2ccccc2C3=O)cc1	14.8	34.7	50.6	< 0	781	29
CC(C)c1ccc(CNCC(O)c2ccccc2)cc1 (stereo not drawn)	7.33	20.6	59.6	10.5 ± 1.3	2650	0
CCn1c(CN2CCN(Cc3ccccc3)CC2)nc2cc(NC(=O)c3cccs3)ccc21	40.6	47.9	56	< 0	615	0
c1ccc(/C2=N/c3ccccc3/N=C(/c3ccccc3)c3ccccc32)cc1	57.3	79.1	80.6	< 0	1580	0
COc1ccc(CN2CCCC(C(=O)c3ccc(C(F)(F)F)cc3)C2)c(O)c1 (stereo not drawn)	9.13	32	51.1	< 0	912	20
COc1ccc2c(c1OC)C(=O)N1c3ccccc3N=C(c3ccc(C)cc3)CC21 (stereo not drawn)	20.9	71.5	80.7	< 0	6080	32
COc1ccccc1CNC(=O)CCn1c(=O)[nH]c2ccsc2c1=O	11.4	30.6	49.9	< 0	6070	22
Cc1cc(=O)oc2c1ccc1oc(C(=O)c3ccccc3)c(C)c12	10.7	25.9	45.3	< 0	1870	28
CCN(CC)CCNc1ncnc2c1[nH]c1ccc(Br)cc12	41.8	49.9	55.8	7.24 ± 12	225	26
COc1ccc(N2CCN(C(CNC(=O)C3CCCCC3)c3ccc4c(c3)OCO4)CC2)cc1 (stereo not drawn)	41.5	44.2	49.2	< 0	6240	23
CC(C)=CCN1CCC(C(=O)Nc2ccc(-c3nc4ccccc4[nH]3)cc2)CC1	18	45.8	59.4	19.7 ± 20	464	0
O=C(Nc1ccc(Cl)cc1)N1CCN(c2ccc3nncn3n2)CC1	13.1	24.8	54.3	< 0	6370	22
CCOc1ccc(N2C(N)=NC(N)=NC2(C)C)cc1	5.22	7.7	16	< 0	9760	28
COc1ccc(-c2c(C)nn3c(N)c(C#N)cnc23)cc1OC	71.1	74.9	76.1	7.54 ± 13	3710	22
CN1CCN(c2nc(Nc3ccc(O)cc3)nc3ccccc23)CC1	34.7	33.4	52.2	< 0	1260	29
COc1ccc(NC(=O)C2c3ccccc3C(=O)N(CC(C)C)C2c2cccs2)cc1 (stereo not drawn)	78.1	78	76.6	< 0	46.9	27
O=C(Nc1ccc(-c2nc3ccccc3[nH]2)cc1)c1ccc(Cl)c(Cl)c1	6.82	10.1	44.2	7.15 ± 8.1	7300	23
CCOc1ccc(CN2CCN(CC(O)COc3ccc(OCC(O)CN4CCN(Cc5ccc(OCC)cc5)CC4)cc3)CC2)cc1 (stereo not drawn)	< 0	14.6	59.9	4.15 ± 5.8	3120	0
Cc1ccc(CSCc2ccc(C(=O)NC3CC3)o2)cc1	14.1	44.2	67.4	3.19 ± 5.5	1000	25
Clc1ccc2c(N3CCCC3)ccnc2c1	43.1	53.3	69.9	< 0	1280	25
